Tests used:
Type in all cases: in vivo
[1] = tested on: slender amaranth (Am); experiment: Test Example 2: herbicidal effects by upland field soil treatment; settings: 100 g of the active ingredient per 10 ares, evaluated on the 21st day after application;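 also: grade of growth control; 5 = at least 90%; 4 = 70 to 90%; 3 = 50 to 70%; 2 = 30 to 50%; 1 = 10 to 30%; 0 = under 10%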
Source text: (§1) (Test on Herbicidal Effects by Upland Field Soil Treatment)

[2] = tested on: rice flatsedge (Ci); experiment: as above; settings: 100 g of the active ingredient per 10 ares, evaluated on the 21st day after application
Source text: as §1

[3] = tested on: pale smartweed (Po); experiment: as above; settings: 100 g of the active ingredient per 10 ares, evaluated on the 21st day after application
Source text: as §1

[4] = tested on: barnyardgrass (Ec); experiment: as above; settings: 100 g of the active ingredient per 10 ares, evaluated on the 21st day after application
Source text: as §1

[5] = tested on: common lambsquarters (Ch); experiment: as above; settings: 100 g of the active ingredient per 10 ares, evaluated on the 21st day after application
Source text: as §1

[6] = tested on: Digitaria ciliaris (Di); experiment: as above; settings: 100 g of the active ingredient per 10 ares, evaluated on the 21st day after application;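 also: grade of growth control; 5 = at least 90%; 4 = 70 to 90%; 3 = 50 to 70%; 2 = 30 to 50%; 1 = 10 to 30%; 0 = under 10%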
Source text: as §1

[7] = tested on: slender amaranth (Am); experiment: Test Example 3: herbicidal effects by upland field foliage treatment; parameters: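 grade of growth control; 5 = at least 90%; 4 = 70 to 90%; 3 = 50 to 70%; 2 = 30 to 50%; 1 = 10 to 30%; 0 = under 10%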; settings: 100 g active ingredient per 10 ares, evaluated 14th day after treatment
In short: (§2)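 Scores reflect herbicidal effect graded by standards on the 14th day after foliage treatment of weeds grown 2 weeks in a greenhouse.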

[8] = tested on: rice flatsedge (Ci); experiment: as above; parameters: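 grade of growth control; 5 = at least 90%; 4 = 70 to 90%; 3 = 50 to 70%; 2 = 30 to 50%; 1 = 10 to 30%; 0 = under 10%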; settings: 100 g active ingredient per 10 ares, evaluated 14th day after treatment
In short: as §2

[9] = tested on: pale smartweed (Po); experiment: as above; parameters: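 grade of growth control; 5 = at least 90%; 4 = 70 to 90%; 3 = 50 to 70%; 2 = 30 to 50%; 1 = 10 to 30%; 0 = under 10%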; settings: 100 g active ingredient per 10 ares, evaluated 14th day after treatment
In short: as §2

[10] = tested on: barnyardgrass (Ec); experiment: as above; parameters: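 grade of growth control; 5 = at least 90%; 4 = 70 to 90%; 3 = 50 to 70%; 2 = 30 to 50%; 1 = 10 to 30%; 0 = under 10%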; settings: 100 g active ingredient per 10 ares, evaluated 14th day after treatment
In short: as §2

[11] = tested on: Diaitaria ciliaris (Di); experiment: as above; parameters: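 grade of growth control; 5 = at least 90%; 4 = 70 to 90%; 3 = 50 to 70%; 2 = 30 to 50%; 1 = 10 to 30%; 0 = under 10%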; settings: 100 g active ingredient per 10 ares, evaluated 14th day after treatment
In short: as §2

[12] = tested on: common lambsquarters (Ch); experiment: as above; parameters: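 grade of growth control; 5 = at least 90%; 4 = 70 to 90%; 3 = 50 to 70%; 2 = 30 to 50%; 1 = 10 to 30%; 0 = under 10%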; settings: 100 g active ingredient per 10 ares, evaluated 14th day after treatment
In short: as §2

[13] = tested on: monochoria (Mo); experiment: Test Example 1: herbicidal effects by paddy field soil treatment; settings: 100 g of the active ingredient per 10 ares, 21st day after the application, index 0-5 of Table 47;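 also: grade of growth control; 5 = at least 90%; 4 = 70 to 90%; 3 = 50 to 70%; 2 = 30 to 50%; 1 = 10 to 30%; 0 = under 10%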
In short: (§3)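 Flooded paddy-soil pots (3 cm water) sown after puddling/leveling; treatment 100 g a.i./10 ares; greenhouse culture; herbicidal effect rated visually on a scoring scale at 21 d post-application.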

[14] = tested on: bulrush (Sc); experiment: as above; settings: 100 g of the active ingredient per 10 ares, 21st day after the application, index 0-5 of Table 47;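 also: grade of growth control; 5 = at least 90%; 4 = 70 to 90%; 3 = 50 to 70%; 2 = 30 to 50%; 1 = 10 to 30%; 0 = under 10%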
In short: as §3

[15] = tested on: barnyardgrass (Ec); experiment: as above; settings: 100 g of the active ingredient per 10 ares, 21st day after the application, index 0-5 of Table 47
In short: as §3

SMILES: C#CCN1C(=O)COc2ccc(-c3ccc(C(F)(F)F)n(C)c3=O)cc21 [2-29]
- Herbicidal effects Am [1]: 5
- Herbicidal effects Ci [2]: 5
- Herbicidal effects Po [3]: 5
- Herbicidal effects Ec [4]: 5
- Herbicidal effects Ch [5]: 5
- Herbicidal effects Di [6]: 5
- Herbicidal effects Am [7]: 5
- Herbicidal effects Ci [8]: 5
- Herbicidal effects Po [9]: 5
- Herbicidal effects Ec [10]: 5
- Herbicidal effects Di [11]: 5
- Herbicidal effects Ch [12]: 5
- Herbicidal effects Mo [13]: 5
- Herbicidal effects Sc [14]: 5
- Herbicidal effects Ec [15]: 5

SMILES: CC(=O)c1cc(-c2ccc(C(F)(F)F)n(C)c2=O)c(F)cc1Cl [Compound 1-190]
- Herbicidal effects Am [1]: 5
- Herbicidal effects Ci [2]: 5
- Herbicidal effects Po [3]: 5
- Herbicidal effects Ec [4]: 5
- Herbicidal effects Ch [5]: 5
- Herbicidal effects Di [6]: 5
- Herbicidal effects Am [7]: 5
- Herbicidal effects Ci [8]: 5
- Herbicidal effects Po [9]: 5
- Herbicidal effects Ec [10]: 5
- Herbicidal effects Di [11]: 5
- Herbicidal effects Ch [12]: 5
- Herbicidal effects Mo [13]: 5
- Herbicidal effects Sc [14]: 5
- Herbicidal effects Ec [15]: 5

SMILES: CC(C)C(O)c1cc(-c2ccc(C(F)(F)F)n(C)c2=O)c(F)cc1Cl (stereo not drawn) [Compound 1-195]
- Herbicidal effects Am [1]: 5
- Herbicidal effects Ci [2]: 5
- Herbicidal effects Po [3]: 5
- Herbicidal effects Ec [4]: 5
- Herbicidal effects Ch [5]: 5
- Herbicidal effects Di [6]: 5
- Herbicidal effects Am [7]: 5
- Herbicidal effects Ci [8]: 5
- Herbicidal effects Po [9]: 5
- Herbicidal effects Ec [10]: 5
- Herbicidal effects Di [11]: 5
- Herbicidal effects Ch [12]: 5
- Herbicidal effects Mo [13]: 5
- Herbicidal effects Sc [14]: 5
- Herbicidal effects Ec [15]: 5

SMILES: CCOCOc1cc(-c2ccc(C(F)(F)F)n(C)c2=O)c(Cl)cc1Cl [Compound 1-206]
- Herbicidal effects Am [1]: 5
- Herbicidal effects Ci [2]: 5
- Herbicidal effects Po [3]: 5
- Herbicidal effects Ec [4]: 5
- Herbicidal effects Ch [5]: 5
- Herbicidal effects Di [6]: 5
- Herbicidal effects Am [7]: 5
- Herbicidal effects Ci [8]: 5
- Herbicidal effects Po [9]: 5
- Herbicidal effects Ec [10]: 5
- Herbicidal effects Di [11]: 5
- Herbicidal effects Ch [12]: 5
- Herbicidal effects Mo [13]: 5
- Herbicidal effects Sc [14]: 5
- Herbicidal effects Ec [15]: 5

SMILES: C#CCNC(=O)COc1cc(-c2ccc(C(F)(F)F)n(C)c2=O)c(F)cc1Cl [Compound 1-210]
- Herbicidal effects Am [1]: 5
- Herbicidal effects Ci [2]: 5
- Herbicidal effects Po [3]: 5
- Herbicidal effects Ec [4]: 5
- Herbicidal effects Ch [5]: 5
- Herbicidal effects Di [6]: 4
- Herbicidal effects Am [7]: 5
- Herbicidal effects Ci [8]: 5
- Herbicidal effects Po [9]: 5
- Herbicidal effects Ec [10]: 4
- Herbicidal effects Di [11]: 5
- Herbicidal effects Ch [12]: 5
- Herbicidal effects Mo [13]: 5
- Herbicidal effects Sc [14]: 5
- Herbicidal effects Ec [15]: 5

SMILES: COCCOc1cc(-c2ccc(C(F)(F)F)n(C)c2=O)c(Cl)cc1Cl [Compound 1-211]
- Herbicidal effects Am [1]: 5
- Herbicidal effects Ci [2]: 5
- Herbicidal effects Po [3]: 5
- Herbicidal effects Ec [4]: 5
- Herbicidal effects Ch [5]: 5
- Herbicidal effects Di [6]: 5
- Herbicidal effects Am [7]: 5
- Herbicidal effects Ci [8]: 5
- Herbicidal effects Po [9]: 5
- Herbicidal effects Ec [10]: 4
- Herbicidal effects Di [11]: 5
- Herbicidal effects Ch [12]: 5
- Herbicidal effects Mo [13]: 5
- Herbicidal effects Sc [14]: 5
- Herbicidal effects Ec [15]: 5

SMILES: CNS(=O)(=O)c1cc(-c2ccc(C(F)(F)F)n(C)c2=O)c(Cl)cc1Cl [Compound 1-256]
- Herbicidal effects Am [1]: 5
- Herbicidal effects Ci [2]: 5
- Herbicidal effects Po [3]: 5
- Herbicidal effects Ec [4]: 5
- Herbicidal effects Ch [5]: 5
- Herbicidal effects Di [6]: 5
- Herbicidal effects Am [7]: 5
- Herbicidal effects Ci [8]: 5
- Herbicidal effects Po [9]: 5
- Herbicidal effects Ec [10]: 5
- Herbicidal effects Di [11]: 5
- Herbicidal effects Ch [12]: 5
- Herbicidal effects Mo [13]: 5
- Herbicidal effects Sc [14]: 5
- Herbicidal effects Ec [15]: 5

SMILES: C=C(C)CN1C(=O)COc2cc(F)c(-c3ccc(C(F)(F)F)n(C)c3=O)cc21 [Compound 2-11]
- Herbicidal effects Am [1]: 5
- Herbicidal effects Ci [2]: 5
- Herbicidal effects Po [3]: 5
- Herbicidal effects Ec [4]: 5
- Herbicidal effects Ch [5]: 5
- Herbicidal effects Di [6]: 5
- Herbicidal effects Am [7]: 5
- Herbicidal effects Ci [8]: 5
- Herbicidal effects Po [9]: 5
- Herbicidal effects Ec [10]: 5
- Herbicidal effects Di [11]: 5
- Herbicidal effects Ch [12]: 5
- Herbicidal effects Mo [13]: 5
- Herbicidal effects Sc [14]: 5
- Herbicidal effects Ec [15]: 5

SMILES: CC=CCN1C(=O)COc2cc(F)c(-c3ccc(C(F)(F)F)n(C)c3=O)cc21 [Compound 2-12]
- Herbicidal effects Am [1]: 5
- Herbicidal effects Ci [2]: 5
- Herbicidal effects Po [3]: 5
- Herbicidal effects Ec [4]: 5
- Herbicidal effects Ch [5]: 5
- Herbicidal effects Di [6]: 5
- Herbicidal effects Am [7]: 5
- Herbicidal effects Ci [8]: 5
- Herbicidal effects Po [9]: 5
- Herbicidal effects Ec [10]: 5
- Herbicidal effects Di [11]: 5
- Herbicidal effects Ch [12]: 5
- Herbicidal effects Mo [13]: 5
- Herbicidal effects Sc [14]: 5
- Herbicidal effects Ec [15]: 5

SMILES: C=C(Cl)CN1C(=O)COc2cc(F)c(-c3ccc(C(F)(F)F)n(C)c3=O)cc21 [Compound 2-13]
- Herbicidal effects Am [1]: 5
- Herbicidal effects Ci [2]: 5
- Herbicidal effects Po [3]: 5
- Herbicidal effects Ec [4]: 5
- Herbicidal effects Ch [5]: 5
- Herbicidal effects Di [6]: 5
- Herbicidal effects Am [7]: 5
- Herbicidal effects Ci [8]: 5
- Herbicidal effects Po [9]: 5
- Herbicidal effects Ec [10]: 5
- Herbicidal effects Di [11]: 5
- Herbicidal effects Ch [12]: 5
- Herbicidal effects Mo [13]: 5
- Herbicidal effects Sc [14]: 5
- Herbicidal effects Ec [15]: 5

SMILES: CN1C(=O)COc2cc(F)c(-c3ccc(C(F)(F)F)n(C)c3=O)cc21 [Compound 2-16]
- Herbicidal effects Am [1]: 5
- Herbicidal effects Ci [2]: 5
- Herbicidal effects Po [3]: 5
- Herbicidal effects Ec [4]: 5
- Herbicidal effects Ch [5]: 5
- Herbicidal effects Di [6]: 5
- Herbicidal effects Am [7]: 5
- Herbicidal effects Ci [8]: 5
- Herbicidal effects Po [9]: 5
- Herbicidal effects Ec [10]: 5
- Herbicidal effects Di [11]: 5
- Herbicidal effects Ch [12]: 5
- Herbicidal effects Mo [13]: 5
- Herbicidal effects Sc [14]: 5
- Herbicidal effects Ec [15]: 5

SMILES: Cc1cc2c(-c3ccc(C(F)(F)F)n(C)c3=O)c(Cl)cc(Cl)c2o1 [Compound 4-10]
- Herbicidal effects Am [1]: 5
- Herbicidal effects Ci [2]: 5
- Herbicidal effects Po [3]: 5
- Herbicidal effects Ec [4]: 5
- Herbicidal effects Ch [5]: 5
- Herbicidal effects Di [6]: 5
- Herbicidal effects Am [7]: 5
- Herbicidal effects Ci [8]: 5
- Herbicidal effects Po [9]: 5
- Herbicidal effects Ec [10]: 5
- Herbicidal effects Di [11]: 5
- Herbicidal effects Ch [12]: 5
- Herbicidal effects Mo [13]: 5
- Herbicidal effects Sc [14]: 5
- Herbicidal effects Ec [15]: 5

SMILES: Cn1c(C(F)(F)F)ccc(-c2c(Cl)cc(Cl)c3oc(CBr)cc23)c1=O [Compound 4-16]
- Herbicidal effects Am [1]: 5
- Herbicidal effects Ci [2]: 5
- Herbicidal effects Po [3]: 5
- Herbicidal effects Ec [4]: 5
- Herbicidal effects Ch [5]: 5
- Herbicidal effects Di [6]: 5
- Herbicidal effects Am [7]: 5
- Herbicidal effects Ci [8]: 5
- Herbicidal effects Po [9]: 5
- Herbicidal effects Ec [10]: 5
- Herbicidal effects Di [11]: 5
- Herbicidal effects Ch [12]: 5
- Herbicidal effects Mo [13]: 5
- Herbicidal effects Sc [14]: 5
- Herbicidal effects Ec [15]: 5

— patent US6472348B1, “Pyridone derivatives and herbicides” (Kumiai Chemical Industry Co., Ltd., priority 1996, dated 2002)
